In patent US11000033B2, “Ketone or oxime compound, and herbicide” (NISSAN CHEMICAL CORPORATION, priority 2014, dated 2021):

Columns and labels:
Type in all cases: in vivo
[1] = test system: Echinochloa oryzacola Vasing.; experiment: Test Example 1: herbicidal activity, application before weed generation in submerged conditions (symbol A); details: application herbicide amount 320 g/ha
Method in brief: (§1)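 Ratings (5: ≥90%, near complete withering; 4: 70–<90%; 3: 40–<70%; 2: 20–<40%; 1: 5–<20%; 0: ≤5%) were assigned 3 weeks after the diluted emulsion was applied to the water surface of freshly sown, submerged pots.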

Monochoria vaginalis [2] = experiment: Test Example 1: herbicidal activity, application before weed generation in submerged conditions (symbol C); details: application herbicide amount 320 g/ha
Method in brief: as §1

Monochoria vaginalis [3] = experiment: Test Example 2: herbicidal activity, application during weed generation in submerged conditions (symbol C); details: Table 23; application herbicide amount 320 g/ha; grade 0-5 by criteria of Test Example 1
Method in brief: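 Visual herbicidal ratings, taken three weeks after dosing, reflect post-emergence water-surface application to seedlings at one to two leaves. Conditions: co-sown weeds in alluvial soil flooded to 4 cm, greenhouse held at 25° C. to 30° C.; compound given as water-diluted emulsion at a fixed herbicide amount.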

Cyperus difformis = experiment: Test Example 3: herbicidal effect by foliage application, Wagner pot (symbol E); details: application herbicide amount 320 g/ha
Method in brief: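 Herbicidal activity was rated three weeks after a foliar spray of diluted emulsion concentrate, applied at a predetermined dose to plants grown for 14 days from seed in waterlogged alluvial soil within a 25–30 °C greenhouse.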

[4] = test system: directly sowed rice plant; experiment: Test Example 3: effect on crop by foliage application, Wagner pot (symbol b); details: application herbicide amount 320 g/ha
Method in brief: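 Alluvial soil in a 1/10000-are Wagner pot was flooded to a water depth of 0.1–0.5 cm. Echinochloa crus-galli var. crus-galli, Leptochloa chinensis, Cyperus difformis and rice were sown into it and grown in a greenhouse at 25–30 °C.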

Digitaria ciliaris = experiment: Test Example 4: herbicidal effect by soil treatment (symbol F); details: for F (Digitaria ciliaris) herbicidal effect grade: application herbicide amount 320 g/ha
Method in brief: (§2)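 Seeds were sown in sterilized diluvial soil, covered with about 1.5 cm of soil, and the soil surface was sprayed with a water-diluted emulsion of the compound at a predetermined rate. Plants grew in a greenhouse at 25° C. to 30° C.; effects were scored visually 3 weeks after application.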

Apera spica-venti = experiment: Test Example 4: herbicidal effect by soil treatment (symbol L); details: for L (Apera spica-venti) herbicidal effect grade: application herbicide amount 320 g/ha
Method in brief: as §2

Amaranthus retroflexus [5] = experiment: Test Example 4: herbicidal effect by soil treatment (symbol N); details: for N (Amaranthus retroflexus) herbicidal effect grade: application herbicide amount 320 g/ha
Method in brief: as §2

rapeseed = experiment: Test Example 4: effect on crop by soil treatment (symbol g); details: for g (rapeseed) effect on crop grade: application herbicide amount 320 g/ha
Method in brief: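 The test used sterilized diluvial soil. Seed was set down in spots and overlaid with about 1.5 cm of soil before growth in a greenhouse kept at 25° C. to 30° C.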

[6] = test system: Echinochloa crus-galli var. crus-galli; experiment: Test Example 5: herbicidal effect by foliage application, plastic box (symbol H); details: 320 g/ha, 3 weeks after application
Method in brief: (§3)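 Seeds were sown in sterilized diluvial soil, covered with about 1.5 cm of soil and grown 14 days in a greenhouse at 25° C. to 30° C. An emulsifiable formulation diluted in water to a set rate was sprayed over foliage, and injury was scored 3 weeks later.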

Avena fatua = experiment: Test Example 5: herbicidal effect by foliage application, plastic box (symbol I); details: 320 g/ha, 3 weeks after application
Method in brief: as §3

Alopecurus myosuroides = experiment: Test Example 5: herbicidal effect by foliage application, plastic box (symbol J); details: 320 g/ha, 3 weeks after application
Method in brief: as §3

Amaranthus retroflexus [7] = experiment: Test Example 5: herbicidal effect by foliage application, plastic box (symbol N); details: 320 g/ha, 3 weeks after application
Method in brief: as §3

Galium spurium = experiment: Test Example 5: herbicidal effect by foliage application, plastic box (symbol Q); details: 320 g/ha, 3 weeks after application
Method in brief: as §3

Structure (SMILES)	Herbicidal effect grade, A: Echinochloa oryzacola Vasing. [1]	Herbicidal effect grade, C: Monochoria vaginalis (Monochoria vaginalis [2])	Herbicidal effect grade, C: Monochoria vaginalis (Monochoria vaginalis [3])	herbicidal effect on E, grade 0-5 (Cyperus difformis)	effect on crop b (directly sowed rice plant), grade 0-5 [4]	F (Digitaria ciliaris) herbicidal effect grade (Digitaria ciliaris)	L (Apera spica-venti) herbicidal effect grade (Apera spica-venti)	N (Amaranthus retroflexus) herbicidal effect grade (Amaranthus retroflexus [5])	g (rapeseed) effect on crop grade (rapeseed)	H: Echinochloa crus-galli var. crus-galli, herbicidal effect grade [6]	I: Avena fatua, herbicidal effect grade (Avena fatua)	J: Alopecurus myosuroides, herbicidal effect grade (Alopecurus myosuroides)	N: Amaranthus retroflexus, herbicidal effect grade (Amaranthus retroflexus [7])	Q: Galium spurium, herbicidal effect grade (Galium spurium)	also measured
CON=C(CC1CC1)CC1CC(O)=C(c2c(C)cc(C)cc2C)C1=O (stereo not shown) [1-070]	4 (Herbicidal ratio of 70% or higher and lower than 90%)	0 (Herbicidal ratio of 5% or lower (almost no effect))	0 (Herbicidal ratio of 5% or lower (almost no effect))	4 (Herbicidal ratio of 70% or higher and lower than 90%)	5 (Herbicidal ratio of 90% or more (almost completely withered))	4 (Herbicidal ratio of 70% or higher and lower than 90%)	5 (Herbicidal ratio of 90% or more (almost completely withered))	0 (Herbicidal ratio of 5% or lower (almost no effect))	0 (Herbicidal ratio of 5% or lower (almost no effect))	3 (Herbicidal ratio of 40% or higher and lower than 70%)	5 (Herbicidal ratio of 90% or more (almost completely withered))	5 (Herbicidal ratio of 90% or more (almost completely withered))	0 (Herbicidal ratio of 5% or lower (almost no effect))	2 (Herbicidal ratio of 20% or higher and lower than 40%)	–
COCCON=C(C)CC1CC(O)=C(c2c(C)cc(C)cc2C)C1=O (stereo not shown) [1-041]	5 (Herbicidal ratio of 90% or more (almost completely withered))	0 (Herbicidal ratio of 5% or lower (almost no effect))	0 (Herbicidal ratio of 5% or lower (almost no effect))	5 (Herbicidal ratio of 90% or more (almost completely withered))	5 (Herbicidal ratio of 90% or more (almost completely withered))	5 (Herbicidal ratio of 90% or more (almost completely withered))	5 (Herbicidal ratio of 90% or more (almost completely withered))	3 (Herbicidal ratio of 40% or higher and lower than 70%)	4 (Herbicidal ratio of 70% or higher and lower than 90%)	5 (Herbicidal ratio of 90% or more (almost completely withered))	5 (Herbicidal ratio of 90% or more (almost completely withered))	5 (Herbicidal ratio of 90% or more (almost completely withered))	3 (Herbicidal ratio of 40% or higher and lower than 70%)	3 (Herbicidal ratio of 40% or higher and lower than 70%)	–
CON=C(CC1CC(O)=C(c2c(C)cc(C)cc2C)C1=O)C1CC1 (stereo not shown) [1-046]	5 (Herbicidal ratio of 90% or more (almost completely withered))	4 (Herbicidal ratio of 70% or higher and lower than 90%)	3 (Herbicidal ratio of 40% or higher and lower than 70%)	5 (Herbicidal ratio of 90% or more (almost completely withered))	5 (Herbicidal ratio of 90% or more (almost completely withered))	5 (Herbicidal ratio of 90% or more (almost completely withered))	5 (Herbicidal ratio of 90% or more (almost completely withered))	2 (Herbicidal ratio of 20% or higher and lower than 40%)	4 (Herbicidal ratio of 70% or higher and lower than 90%)	5 (Herbicidal ratio of 90% or more (almost completely withered))	5 (Herbicidal ratio of 90% or more (almost completely withered))	5 (Herbicidal ratio of 90% or more (almost completely withered))	2 (Herbicidal ratio of 20% or higher and lower than 40%)	0 (Herbicidal ratio of 5% or lower (almost no effect))	–
CON=C(C)CC1CC(OC(=O)C2=C(Br)CCC2)=C(c2c(C)cc(C)cc2C)C1=O (stereo not shown) [1-089]	5 (Herbicidal ratio of 90% or more (almost completely withered))	3 (Herbicidal ratio of 40% or higher and lower than 70%)	3 (Herbicidal ratio of 40% or higher and lower than 70%)	5 (Herbicidal ratio of 90% or more (almost completely withered))	5 (Herbicidal ratio of 90% or more (almost completely withered))	–	–	–	–	–	–	–	–	–	F: Digitaria ciliaris, herbicidal effect grade (Digitaria ciliaris; 320 g/ha): 5 (Herbicidal ratio of 90% or more (almost completely withered)); L: Apera spica-venti, herbicidal effect grade (Apera spica-venti; 320 g/ha): 5 (Herbicidal ratio of 90% or more (almost completely withered)); N: Amaranthus retroflexus, herbicidal effect grade (Amaranthus retroflexus [5]; 320 g/ha): 3 (Herbicidal ratio of 40% or higher and lower than 70%); g: rapeseed, effect grade on crop (rapeseed; 320 g/ha): 4 (Herbicidal ratio of 70% or higher and lower than 90%); H: Echinochloa crus-galli var. crus-galli, herbicidal effect (criteria 0-5) [6]: 5 (Herbicidal ratio of 90% or more (almost completely withered)); I: Avena fatua, herbicidal effect (criteria 0-5) (Avena fatua): 5 (Herbicidal ratio of 90% or more (almost completely withered)); J: Alopecurus myosuroides, herbicidal effect (criteria 0-5) (Alopecurus myosuroides): 5 (Herbicidal ratio of 90% or more (almost completely withered)); N: Amaranthus retroflexus, herbicidal effect (criteria 0-5) (Amaranthus retroflexus [7]): 2 (Herbicidal ratio of 20% or higher and lower than 40%); Q: Galium spurium, herbicidal effect (criteria 0-5) (Galium spurium): 0 (Herbicidal ratio of 5% or lower (almost no effect))
CC(CC1CC(O)=C(c2c(C)cc(C)cc2C)C1=O)=NOCC1CC1 (stereo not shown) [1-024]	5 (Herbicidal ratio of 90% or more (almost completely withered))	2 (Herbicidal ratio of 20% or higher and lower than 40%)	3 (Herbicidal ratio of 40% or higher and lower than 70%)	5 (Herbicidal ratio of 90% or more (almost completely withered))	5 (Herbicidal ratio of 90% or more (almost completely withered))	5 (Herbicidal ratio of 90% or more (almost completely withered))	5 (Herbicidal ratio of 90% or more (almost completely withered))	4 (Herbicidal ratio of 70% or higher and lower than 90%)	3 (Herbicidal ratio of 40% or higher and lower than 70%)	5 (Herbicidal ratio of 90% or more (almost completely withered))	5 (Herbicidal ratio of 90% or more (almost completely withered))	5 (Herbicidal ratio of 90% or more (almost completely withered))	0 (Herbicidal ratio of 5% or lower (almost no effect))	3 (Herbicidal ratio of 40% or higher and lower than 70%)	–
